Square brackets hold non-standard residues; d marks the D form. Peptide text beside a SMILES is read from it.
Test: Safety and tolerability (adverse events, DLT, MTD), phase I study
Type: in vivo, human
From the text: The present clinical study is a formal open label phase I dose escalation study. The primary objective was to determine the maximum tolerated dose (MTD) and safety profile of dTCApFs. Assessments included drug exposure, adverse events (AEs; graded according to the Common Terminology Criteria for Adverse Events (CTCAE), and characterization of dose-limiting toxicities (DLTs). Other objectives included assessment of serum levels of angiogenic factors after dTCApFs administration, pharmacokinetics (PK) and pharmacodynamics (PD) analyses, as well as assessment of receptor staining and tumor response. […]
Subjects with evaluable or measurable disease are assessed according to the response evaluation criteria in solid tumors (RECIST) version 1.1 every 2 cycles, where a cycle is defined as 4 weeks of treatment with three administrations per week. Tumor lesion measurements and changes from baseline are summarized by cycle and dose cohort.

With `CC(C)C[C@@H](NC(=O)[C@H](NC(=O)[C@@H](CO)NC(=O)[C@H]1CCCN1C(=O)[C@@H](CC(C)C)NC(=O)[C@@H](Cc1ccccc1)NC(=O)[C@@H](Cc1ccccc1)NC(=O)[C@H](NC(=O)[C@@H](Cc1c[nH]c2ccccc12)NC(=O)[C@H](N)Cc1c[nH]c2ccccc12)[C@H](C)O)[C@H](C)O)C(=O)N[C@H](Cc1c[nH]c2ccccc12)C(=O)N[C@H](CCC(=O)O)C(=O)N[C@H](CCCNC(=N)N)C(=O)N[C@H](CCCCN)C(=O)O` [dTCApFs, Trp Trp Thr Phe Phe Leu Pro Ser Thr Leu Trp Glu Arg Lys] (H-[dW][dW][dT][dF][dF][dL][dP][dS][dT][dL][dW][dE][dR][dK]-OH; N-terminus and C-terminus assumed) as the compound, how does the “Adverse event Grade 2: Pain, leg” value (24 mg/m^2, n = 3) read?
The value was 0.

And the “Adverse event Grade 2: Pain, upper back” value (24 mg/m^2, n = 3)?
The value was 0.

And the “Adverse event Grade 2: Pruritus” value (24 mg/m^2, n = 3)?
The value was 0.

What about the “Adverse event Grade 2: Urinary tract infection” value (24 mg/m^2, n = 3) of the same compound?
The value was 0.

What about the “Adverse event Grade 2: Urticaria” value (24 mg/m^2, n = 3) of the same compound?
Its value is 0.

What about the “Adverse event Grade 3: Bilirubin increase” value (24 mg/m^2, n = 3) of the same compound?
Its value is 0.

What about the “Adverse event Grade 3: Bowel obstruction” value (24 mg/m^2, n = 3) of the same compound?
Its value is 0.

What about the “Adverse event Grade 3: Diarrhea” value (24 mg/m^2, n = 3) of the same compound?
Its value is 0.

What about the “Adverse event Grade 3: GI hemorrhage” value (24 mg/m^2, n = 3) of the same compound?
The value was 0.

What about the “Adverse event Grade 3: Hypertension” value (24 mg/m^2, n = 3) of the same compound?
Its value is 1.

What about the “Adverse event Grade 3: Increased INR” value (24 mg/m^2, n = 3) of the same compound?
Its value is 0.

What about the “Adverse event Grade 4: Vomiting” value (24 mg/m^2, n = 3) of the same compound?
The value was 0.

What about the “Adverse event Grade 1: Abdominal pain” value (48 mg/m^2, n = 3) of the same compound?
Its value is 0.

And the “Adverse event Grade 1: Anemia” value (48 mg/m^2, n = 3)?
The value was 0.

What about the “Adverse event Grade 1: Bowel obstruction” value (48 mg/m^2, n = 3) of the same compound?
Its value is 0.

And the “Adverse event Grade 1: Dehydration” value (48 mg/m^2, n = 3)?
Its value is 0.

And the “Adverse event Grade 1: Diarrhea” value (48 mg/m^2, n = 3)?
Its value is 0.

And the “Adverse event Grade 1: Fatigue” value (48 mg/m^2, n = 3)?
The value was 1.

And the “Adverse event Grade 1: GI hemorrhage” value (48 mg/m^2, n = 3)?
Its value is 0.

And the “Adverse event Grade 1: Hypertension” value (48 mg/m^2, n = 3)?
Its value is 0.

What about the “Adverse event Grade 1: Increased INR” value (48 mg/m^2, n = 3) of the same compound?
The value was 1.

And the “Adverse event Grade 1: Neuropathy” value (48 mg/m^2, n = 3)?
Its value is 0.

And the “Adverse event Grade 1: Vomiting” value (48 mg/m^2, n = 3)?
The value was 0.

And the “Adverse event Grade 2: ALT increase” value (48 mg/m^2, n = 3)?
The value was 0.

What about the “Adverse event Grade 2: AST increase” value (48 mg/m^2, n = 3) of the same compound?
Its value is 0.

What about the “Adverse event Grade 2: Bilirubin increase” value (48 mg/m^2, n = 3) of the same compound?
Its value is 1.

What about the “Adverse event Grade 2: Cough” value (48 mg/m^2, n = 3) of the same compound?
The value was 0.

And the “Adverse event Grade 2: Liver dysfunction” value (48 mg/m^2, n = 3)?
Its value is 0.

And the “Adverse event Grade 2: Pain, leg” value (48 mg/m^2, n = 3)?
Its value is 0.

And the “Adverse event Grade 2: Pain, upper back” value (48 mg/m^2, n = 3)?
Its value is 0.

What about the “Adverse event Grade 2: Pruritus” value (48 mg/m^2, n = 3) of the same compound?
Its value is 0.

What about the “Adverse event Grade 2: Urinary tract infection” value (48 mg/m^2, n = 3) of the same compound?
The value was 0.

And the “Adverse event Grade 2: Urticaria” value (48 mg/m^2, n = 3)?
Its value is 0.

What about the “Adverse event Grade 3: Bilirubin increase” value (48 mg/m^2, n = 3) of the same compound?
The value was 1.

And the “Adverse event Grade 3: Bowel obstruction” value (48 mg/m^2, n = 3)?
The value was 0.

What about the “Adverse event Grade 3: Diarrhea” value (48 mg/m^2, n = 3) of the same compound?
The value was 0.

And the “Adverse event Grade 3: GI hemorrhage” value (48 mg/m^2, n = 3)?
Its value is 0.

And the “Adverse event Grade 3: Hypertension” value (48 mg/m^2, n = 3)?
The value was 0.

What about the “Adverse event Grade 3: Increased INR” value (48 mg/m^2, n = 3) of the same compound?
Its value is 1.

What about the “Adverse event Grade 4: Vomiting” value (48 mg/m^2, n = 3) of the same compound?
Its value is 0.

And the “Adverse event Grade 1: Abdominal pain” value (96 mg/m^2, n = 5)?
The value was 0.

What about the “Adverse event Grade 1: Anemia” value (96 mg/m^2, n = 5) of the same compound?
The value was 0.

And the “Adverse event Grade 1: Bowel obstruction” value (96 mg/m^2, n = 5)?
Its value is 0.

And the “Adverse event Grade 1: Dehydration” value (96 mg/m^2, n = 5)?
Its value is 1.

And the “Adverse event Grade 1: Diarrhea” value (96 mg/m^2, n = 5)?
The value was 2.

And the “Adverse event Grade 1: Fatigue” value (96 mg/m^2, n = 5)?
The value was 0.

And the “Adverse event Grade 1: GI hemorrhage” value (96 mg/m^2, n = 5)?
Its value is 0.

And the “Adverse event Grade 1: Hypertension” value (96 mg/m^2, n = 5)?
The value was 1.

And the “Adverse event Grade 1: Increased INR” value (96 mg/m^2, n = 5)?
The value was 0.

What about the “Adverse event Grade 1: Neuropathy” value (96 mg/m^2, n = 5) of the same compound?
Its value is 0.

What about the “Adverse event Grade 1: Vomiting” value (96 mg/m^2, n = 5) of the same compound?
The value was 1.

What about the “Adverse event Grade 2: ALT increase” value (96 mg/m^2, n = 5) of the same compound?
Its value is 1.

And the “Adverse event Grade 2: AST increase” value (96 mg/m^2, n = 5)?
The value was 1.

What about the “Adverse event Grade 2: Bilirubin increase” value (96 mg/m^2, n = 5) of the same compound?
Its value is 1.

And the “Adverse event Grade 2: Cough” value (96 mg/m^2, n = 5)?
Its value is 0.

What about the “Adverse event Grade 2: Liver dysfunction” value (96 mg/m^2, n = 5) of the same compound?
The value was 1.

And the “Adverse event Grade 2: Pain, leg” value (96 mg/m^2, n = 5)?
The value was 0.

What about the “Adverse event Grade 2: Pain, upper back” value (96 mg/m^2, n = 5) of the same compound?
Its value is 1.

What about the “Adverse event Grade 2: Pruritus” value (96 mg/m^2, n = 5) of the same compound?
The value was 1.

And the “Adverse event Grade 2: Urinary tract infection” value (96 mg/m^2, n = 5)?
Its value is 0.

What about the “Adverse event Grade 2: Urticaria” value (96 mg/m^2, n = 5) of the same compound?
Its value is 2.

What about the “Adverse event Grade 3: Bilirubin increase” value (96 mg/m^2, n = 5) of the same compound?
The value was 1.

What about the “Adverse event Grade 3: Bowel obstruction” value (96 mg/m^2, n = 5) of the same compound?
Its value is 0.

And the “Adverse event Grade 3: Diarrhea” value (96 mg/m^2, n = 5)?
Its value is 1.

And the “Adverse event Grade 3: GI hemorrhage” value (96 mg/m^2, n = 5)?
The value was 0.

And the “Adverse event Grade 3: Hypertension” value (96 mg/m^2, n = 5)?
The value was 2.

And the “Adverse event Grade 3: Increased INR” value (96 mg/m^2, n = 5)?
Its value is 0.

What about the “Adverse event Grade 4: Vomiting” value (96 mg/m^2, n = 5) of the same compound?
The value was 1.

And the “relation of adverse events (AEs) to study drug” value (AEs of Table 4)?
Its value is “None were related to study drug”.

What about the “grade 4 AE vomiting, number of patients” value (all dose groups) of the same compound?
Its value is 1.

And the “dose-limiting toxicities (DLTs)” value (any patient up to cohort 5 (6-96 mg/m^2))?
Its value is “No dose-limiting toxicities (DLTs) were observed”.

What about the MTD (doses of 6, 12, 24, 48, and 96 mg/m^2 i.v., 3 times/week) of the same compound?
Its MTD is “not reached”.

What about the tolerability of treatment (overall, 17 patients) of the same compound?
The tolerability of treatment was “well-tolerated with no cumulative toxicity”.
